Consider three compounds from publication PMC4685510, “A Cell Biologist’s Field Guide to Aurora Kinase Inhibitors” (Frontiers in Oncology, 2015).

Holding throughout (test): biochemical
Holding throughout (format): biochemical

Assay [1] concerns the target T1, 363 human kinases (including Aurora A/B/C) (Homo sapiens, UniProt O15146).
T1 sequence (O15146 24-869): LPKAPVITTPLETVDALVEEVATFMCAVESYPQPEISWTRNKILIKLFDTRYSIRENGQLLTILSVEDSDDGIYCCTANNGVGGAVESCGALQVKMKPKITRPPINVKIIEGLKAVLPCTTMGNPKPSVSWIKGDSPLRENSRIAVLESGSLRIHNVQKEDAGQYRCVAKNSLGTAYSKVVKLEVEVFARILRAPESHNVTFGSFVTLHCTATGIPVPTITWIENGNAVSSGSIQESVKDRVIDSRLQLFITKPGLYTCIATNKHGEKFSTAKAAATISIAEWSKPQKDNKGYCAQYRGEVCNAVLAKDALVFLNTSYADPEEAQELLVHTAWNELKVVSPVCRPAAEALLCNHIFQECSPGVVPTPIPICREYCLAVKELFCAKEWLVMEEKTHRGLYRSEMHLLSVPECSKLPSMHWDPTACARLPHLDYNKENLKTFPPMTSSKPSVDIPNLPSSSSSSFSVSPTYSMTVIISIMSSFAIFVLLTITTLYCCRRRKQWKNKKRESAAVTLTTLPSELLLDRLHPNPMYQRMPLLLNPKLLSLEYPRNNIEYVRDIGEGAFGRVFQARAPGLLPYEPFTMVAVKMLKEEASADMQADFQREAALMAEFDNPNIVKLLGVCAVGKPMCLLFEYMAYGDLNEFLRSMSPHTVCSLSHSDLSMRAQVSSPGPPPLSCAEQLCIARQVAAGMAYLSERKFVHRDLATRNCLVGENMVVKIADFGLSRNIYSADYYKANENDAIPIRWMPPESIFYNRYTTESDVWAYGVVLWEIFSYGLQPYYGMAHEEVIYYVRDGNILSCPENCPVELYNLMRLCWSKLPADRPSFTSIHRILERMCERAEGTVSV
The settings on record: MUSK; for remaining activity at 0.5 µM / remaining activity at 0.1 µM: read-out: % Enzyme Activity (relative to DMSO controls); for remaining activity at 0.1 µM: 100 nM.
From the text: (§1) However, the Aurora A/B selectivity ratios derived from our in vitro and in vivo data can be compared to prioritize inhibitors.

For assay [2], the target named is T2, 363 human kinases (including Aurora A/B/C) (Homo sapiens, UniProt O75385).
T2 sequence (O75385 1-1050): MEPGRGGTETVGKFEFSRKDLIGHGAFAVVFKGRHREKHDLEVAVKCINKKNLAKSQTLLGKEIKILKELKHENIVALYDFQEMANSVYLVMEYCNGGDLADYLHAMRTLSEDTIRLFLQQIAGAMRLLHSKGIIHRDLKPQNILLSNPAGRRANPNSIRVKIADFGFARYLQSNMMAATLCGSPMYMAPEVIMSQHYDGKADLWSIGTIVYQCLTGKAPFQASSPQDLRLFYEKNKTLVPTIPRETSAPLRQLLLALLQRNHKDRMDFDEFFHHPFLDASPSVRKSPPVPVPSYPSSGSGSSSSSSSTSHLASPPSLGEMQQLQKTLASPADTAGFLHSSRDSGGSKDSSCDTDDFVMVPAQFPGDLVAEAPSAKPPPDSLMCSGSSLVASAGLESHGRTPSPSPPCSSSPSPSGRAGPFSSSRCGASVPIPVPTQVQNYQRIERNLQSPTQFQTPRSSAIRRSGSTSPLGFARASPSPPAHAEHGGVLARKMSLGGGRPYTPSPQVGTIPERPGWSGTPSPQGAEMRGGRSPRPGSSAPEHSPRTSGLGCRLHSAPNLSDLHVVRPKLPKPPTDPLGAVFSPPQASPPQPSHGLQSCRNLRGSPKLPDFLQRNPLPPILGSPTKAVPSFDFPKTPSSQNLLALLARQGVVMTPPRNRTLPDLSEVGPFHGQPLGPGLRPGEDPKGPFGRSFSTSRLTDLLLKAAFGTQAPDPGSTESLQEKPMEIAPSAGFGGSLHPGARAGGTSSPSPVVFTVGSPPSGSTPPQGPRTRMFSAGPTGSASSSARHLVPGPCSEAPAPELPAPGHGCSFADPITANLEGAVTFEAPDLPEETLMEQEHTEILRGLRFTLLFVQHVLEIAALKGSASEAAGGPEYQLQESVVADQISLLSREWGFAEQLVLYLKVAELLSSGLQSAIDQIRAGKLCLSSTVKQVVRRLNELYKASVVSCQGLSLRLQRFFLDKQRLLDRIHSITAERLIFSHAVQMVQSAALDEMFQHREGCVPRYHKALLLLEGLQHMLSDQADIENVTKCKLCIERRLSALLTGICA
The settings on record: ULK1; for remaining activity at 0.5 µM / remaining activity at 0.1 µM: read-out: % Enzyme Activity (relative to DMSO controls); for remaining activity at 0.1 µM: 100 nM.
From the text: as §1

Assay [3] addresses 363 human kinases (including Aurora A/B/C) (Homo sapiens, UniProt O96013). The settings on record: PAK4; for remaining activity at 0.5 µM / remaining activity at 0.1 µM: read-out: % Enzyme Activity (relative to DMSO controls); for remaining activity at 0.1 µM: 100 nM.
From the text: as §1
Assay [4] addresses 363 human kinases (including Aurora A/B/C) (Homo sapiens, UniProt P08631). The settings on record: HCK; for remaining activity at 0.5 µM / remaining activity at 0.1 µM: read-out: % Enzyme Activity (relative to DMSO controls); for remaining activity at 0.1 µM: 100 nM.
From the text: as §1
The target of assay [5] is T3, 363 human kinases (including Aurora A/B/C) (Homo sapiens, UniProt P20794).
T3 sequence (P20794 1-623): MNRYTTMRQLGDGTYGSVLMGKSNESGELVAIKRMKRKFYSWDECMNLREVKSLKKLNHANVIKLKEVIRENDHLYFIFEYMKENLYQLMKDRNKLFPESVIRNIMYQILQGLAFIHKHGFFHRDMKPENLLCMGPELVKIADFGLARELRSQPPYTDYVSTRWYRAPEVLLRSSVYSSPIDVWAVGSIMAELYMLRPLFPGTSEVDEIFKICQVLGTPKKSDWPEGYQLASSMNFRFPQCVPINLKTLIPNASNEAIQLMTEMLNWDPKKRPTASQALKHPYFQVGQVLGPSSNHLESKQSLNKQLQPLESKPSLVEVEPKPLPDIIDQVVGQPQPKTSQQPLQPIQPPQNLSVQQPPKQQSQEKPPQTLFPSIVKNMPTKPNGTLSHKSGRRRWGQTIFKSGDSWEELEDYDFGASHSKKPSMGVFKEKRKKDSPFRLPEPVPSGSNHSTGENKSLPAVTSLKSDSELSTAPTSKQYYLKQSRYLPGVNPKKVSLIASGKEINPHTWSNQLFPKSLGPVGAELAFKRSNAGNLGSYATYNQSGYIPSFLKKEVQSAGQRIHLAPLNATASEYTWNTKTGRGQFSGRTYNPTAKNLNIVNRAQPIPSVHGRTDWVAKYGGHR
The settings on record: MAK; for remaining activity at 0.5 µM / remaining activity at 0.1 µM: read-out: % Enzyme Activity (relative to DMSO controls); for remaining activity at 0.1 µM: 100 nM.
From the text: as §1

The target of assay [6] is 363 human kinases (including Aurora A/B/C) (Homo sapiens, UniProt P80192). The settings on record: MLK1/MAP3K9; for remaining activity at 0.5 µM / remaining activity at 0.1 µM: read-out: % Enzyme Activity (relative to DMSO controls); for remaining activity at 0.1 µM: 100 nM.
From the text: as §1
Assay [7] has as its target 363 human kinases (including Aurora A/B/C) (Homo sapiens, UniProt Q9Y4K4). The settings on record: KHS/MAP4K5; for remaining activity at 0.5 µM / remaining activity at 0.1 µM: read-out: % Enzyme Activity (relative to DMSO controls); for remaining activity at 0.1 µM: 100 nM.
From the text: as §1

Each structure is given as a SMILES string.

363 human kinases (including Aurora A/B/C) (Homo sapiens, UniProt O96013), sequence (O96013 whole entry): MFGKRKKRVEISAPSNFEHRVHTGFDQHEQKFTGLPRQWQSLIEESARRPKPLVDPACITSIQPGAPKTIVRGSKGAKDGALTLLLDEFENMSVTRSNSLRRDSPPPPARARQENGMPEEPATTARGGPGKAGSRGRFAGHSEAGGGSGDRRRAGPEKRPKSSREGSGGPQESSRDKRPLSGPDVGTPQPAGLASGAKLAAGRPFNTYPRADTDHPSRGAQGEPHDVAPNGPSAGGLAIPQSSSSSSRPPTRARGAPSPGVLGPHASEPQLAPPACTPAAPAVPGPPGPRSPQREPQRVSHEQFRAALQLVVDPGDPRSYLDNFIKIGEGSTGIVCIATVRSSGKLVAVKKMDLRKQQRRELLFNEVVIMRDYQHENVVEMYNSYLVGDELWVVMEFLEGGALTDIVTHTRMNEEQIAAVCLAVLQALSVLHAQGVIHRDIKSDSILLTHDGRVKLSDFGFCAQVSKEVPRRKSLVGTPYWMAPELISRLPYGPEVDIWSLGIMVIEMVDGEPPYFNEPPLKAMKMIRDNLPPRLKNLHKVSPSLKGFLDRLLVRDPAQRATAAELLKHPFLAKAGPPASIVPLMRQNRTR
363 human kinases (including Aurora A/B/C) (Homo sapiens, UniProt P08631), sequence (P08631 whole entry): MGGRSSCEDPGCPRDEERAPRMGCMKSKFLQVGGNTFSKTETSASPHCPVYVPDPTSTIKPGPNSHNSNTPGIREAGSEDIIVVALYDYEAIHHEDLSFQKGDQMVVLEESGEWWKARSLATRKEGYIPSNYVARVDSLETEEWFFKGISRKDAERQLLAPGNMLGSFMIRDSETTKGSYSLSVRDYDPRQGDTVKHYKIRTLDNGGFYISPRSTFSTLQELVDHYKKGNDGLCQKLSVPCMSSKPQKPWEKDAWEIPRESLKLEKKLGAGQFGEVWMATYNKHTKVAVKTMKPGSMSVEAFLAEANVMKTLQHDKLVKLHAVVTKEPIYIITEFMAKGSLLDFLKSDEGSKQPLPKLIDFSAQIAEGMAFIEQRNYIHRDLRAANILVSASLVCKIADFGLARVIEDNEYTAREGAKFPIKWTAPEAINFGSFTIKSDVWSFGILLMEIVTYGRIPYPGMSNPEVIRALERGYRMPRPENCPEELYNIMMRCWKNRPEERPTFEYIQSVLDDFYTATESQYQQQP
363 human kinases (including Aurora A/B/C) (Homo sapiens, UniProt P80192), sequence (P80192 whole entry): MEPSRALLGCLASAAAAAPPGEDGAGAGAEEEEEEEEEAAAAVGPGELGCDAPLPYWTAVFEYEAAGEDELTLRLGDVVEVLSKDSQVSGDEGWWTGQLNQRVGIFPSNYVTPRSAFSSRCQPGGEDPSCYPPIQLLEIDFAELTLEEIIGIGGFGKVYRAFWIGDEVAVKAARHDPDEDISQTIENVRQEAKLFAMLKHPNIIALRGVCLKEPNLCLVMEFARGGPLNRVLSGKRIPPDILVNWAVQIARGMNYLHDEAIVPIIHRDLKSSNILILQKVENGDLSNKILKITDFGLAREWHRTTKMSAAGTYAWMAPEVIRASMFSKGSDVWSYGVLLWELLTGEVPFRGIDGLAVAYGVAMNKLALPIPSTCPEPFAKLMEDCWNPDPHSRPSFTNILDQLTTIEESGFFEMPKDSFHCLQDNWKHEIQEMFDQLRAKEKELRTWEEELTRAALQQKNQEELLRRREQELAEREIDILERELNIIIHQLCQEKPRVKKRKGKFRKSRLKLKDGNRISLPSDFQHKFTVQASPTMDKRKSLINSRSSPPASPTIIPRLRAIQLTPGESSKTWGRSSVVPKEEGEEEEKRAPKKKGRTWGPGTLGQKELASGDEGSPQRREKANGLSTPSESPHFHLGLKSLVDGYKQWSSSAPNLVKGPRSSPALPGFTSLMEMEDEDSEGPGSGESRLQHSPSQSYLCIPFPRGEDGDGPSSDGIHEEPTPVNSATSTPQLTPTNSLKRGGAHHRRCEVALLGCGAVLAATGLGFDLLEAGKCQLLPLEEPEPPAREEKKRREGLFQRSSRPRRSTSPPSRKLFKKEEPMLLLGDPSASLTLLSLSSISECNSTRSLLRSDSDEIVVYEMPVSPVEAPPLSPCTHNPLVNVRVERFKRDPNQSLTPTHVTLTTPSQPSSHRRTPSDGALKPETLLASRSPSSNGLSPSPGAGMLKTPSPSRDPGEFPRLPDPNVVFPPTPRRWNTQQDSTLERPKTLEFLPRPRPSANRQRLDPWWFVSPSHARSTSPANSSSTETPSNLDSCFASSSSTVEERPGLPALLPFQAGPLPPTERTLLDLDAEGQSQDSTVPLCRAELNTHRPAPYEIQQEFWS
363 human kinases (including Aurora A/B/C) (Homo sapiens, UniProt Q9Y4K4), sequence (Q9Y4K4 whole entry): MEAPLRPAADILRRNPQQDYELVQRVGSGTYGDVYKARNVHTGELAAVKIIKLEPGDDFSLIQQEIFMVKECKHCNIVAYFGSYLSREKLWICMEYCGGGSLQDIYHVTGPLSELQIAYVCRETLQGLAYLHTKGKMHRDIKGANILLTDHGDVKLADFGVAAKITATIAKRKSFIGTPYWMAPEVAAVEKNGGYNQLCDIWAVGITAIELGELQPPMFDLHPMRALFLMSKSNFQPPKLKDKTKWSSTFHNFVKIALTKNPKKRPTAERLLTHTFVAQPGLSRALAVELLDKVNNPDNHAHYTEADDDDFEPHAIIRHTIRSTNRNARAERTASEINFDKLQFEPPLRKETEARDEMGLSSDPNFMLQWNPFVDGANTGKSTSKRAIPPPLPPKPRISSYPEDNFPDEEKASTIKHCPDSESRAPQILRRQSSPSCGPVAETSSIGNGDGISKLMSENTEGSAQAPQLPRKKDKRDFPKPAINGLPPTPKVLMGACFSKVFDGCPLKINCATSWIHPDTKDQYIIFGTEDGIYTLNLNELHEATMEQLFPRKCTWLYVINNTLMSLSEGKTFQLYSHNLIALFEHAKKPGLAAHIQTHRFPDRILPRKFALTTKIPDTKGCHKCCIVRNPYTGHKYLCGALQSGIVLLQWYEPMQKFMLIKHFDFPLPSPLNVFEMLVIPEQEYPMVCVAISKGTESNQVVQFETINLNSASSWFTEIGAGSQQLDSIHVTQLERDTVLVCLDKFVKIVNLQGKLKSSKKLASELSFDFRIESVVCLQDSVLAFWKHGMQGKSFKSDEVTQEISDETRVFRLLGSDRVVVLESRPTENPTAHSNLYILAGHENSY

On to `O=C(c1cccc(Cl)c1F)N1CCN(Cc2cccc(Nc3nccs3)n2)CC1` [MK-8745], for which the “% Enzyme Activity (relative to DMSO controls)” value in assay [1] (500 nM) is reported as 94.70%; in assay [2] (500 nM), 92.67%; in assay [3] (500 nM), 92.31%; in assay [4] (500 nM) it was 52.42%; in assay [5] (500 nM), 86.85%; in assay [6] (500 nM) it was 101.78%. The “% Enzyme Activity (relative to DMSO controls)” value in assay [7] (500 nM) came to 93.71%. Further, the remaining activity at 0.5 µM in assay [1] (500 nM) is 95.3%; in assay [2] (500 nM) it was 93.8%; in assay [3] (500 nM) it was 95.9%; in assay [4] (500 nM), 53.9%; in assay [5] (500 nM) it was 87%; in assay [6] (500 nM), 102%. The remaining activity at 0.5 µM in assay [7] (500 nM) was found to be 94%.
As for `CCn1cc(-c2ccnc3[nH]c(-c4cccc(CN(C)C)c4)cc23)c(-c2ccc(NC(=O)N(C)C)cc2)n1` [GSK1070916], the remaining activity at 0.1 µM is 96% in assay [1]; 111% in assay [2]; 106% in assay [3]; 102% in assay [4]; 100% in assay [5]; 97.6% in assay [6]. In assay [7], the remaining activity at 0.1 µM worked out at 84%.
Consider `O=C(O)[C@]1(Cc2cccc(Nc3nccs3)n2)CC[C@@H](Oc2cccc(Cl)c2F)CC1` [MK-5108], for which the remaining activity at 0.1 µM in assay [1] worked out at 104%; in assay [2], 107%; in assay [3], 92.8%; in assay [4], 46.1%; in assay [5] it was 84.8%; in assay [6], 88.5%. The remaining activity at 0.1 µM in assay [7] is 96.2%. Further, the remaining activity at 0.5 µM in assay [1] (500 nM) was 71.9%; in assay [2] (500 nM), 104%; in assay [3] (500 nM), 89.8%; in assay [4] (500 nM), 20.2%; in assay [5] (500 nM), 79.5%; in assay [6] (500 nM) it was 64.3%. Besides, the remaining activity at 0.5 µM in assay [7] (500 nM) was 92.4%.
